Patent publication US20110158907A1, “DIPHENYL-HETEROARYL DERIVATIVES AND THEIR USE FOR BINDING AND IMAGING AMYLOID PLAQUES” (The Trustees of the Univeristy of Pennsylvania, priority 2007, published 2011)
Like-named read-outs stand apart in the source and are kept apart here. Values belong to the compound of their own block, whether it stands above or below them.

Key:
[1] = Organ distribution of [^125I] or [^18F]tracers in normal mice
Procedure: (§2) While under isoflurane anesthesia, 0.15 mL of a 0.1% bovine serum albumin solution containing [^125I] or [^18F]tracers (5-10 μCi) was injected directly into the tail vein of ICR mice (22-25 g, male). The mice (n=3 for each time point) were sacrificed by cervical dislocation at designated time-points post injection. The organs of interest were removed and weighed, and the radioactivity was counted with an automatic gamma counter. The percentage dose per organ was calculated by a comparison of the tissue counts to suitably diluted aliquots of the injected material. The total activity of the blood was calculated under the assumption that it is 7% of the total body weight. The % dose/g of samples was calculated by comparing the sample counts with the count of the diluted initial dose.

[2] = test system: Aβ plaques in AD brain sections; experiment: In vitro film autoradiography of macroarray brain sections; type: binding, human
Text: FIG. 5 depicts in vitro film autoradiography of macroarray brain sections constructed from AD and control cases. The Aβ plaques were clearly visualized with low background labeling with two preferred radiofluorinated probes of the present invention.
(§1) To compare different probes using similar sections of human brain tissue, human macro-array brain sections from 6 confirmed AD cases and one control subject were assembled. The presence and localization of plaques on the sections was confirmed with immunohistochemical staining with monoclonal Aβ antibody 4G8 (Sigma). The frozen sections were incubated with [^125I] and [^18F]tracers (200,000-250,000 cpm/200 μL) for 1 h at room temperature. The sections were then dipped in saturated lithium carbonate in 40% EtOH (two two-minute washes) and washed with 40% EtOH (one two-minute wash) followed by rinsing with water for 30 sec. After drying, the ^125I- or ^18F-labeled sections were exposed to Kodak Biomax MR film overnight.
[^18F]tracers: Brain sections from AD subjects were obtained by freezing the brain in powdered dry ice and cut into 20 micrometer-thick sections. The sections were incubated with [^18F]tracers (200,000-250,000 cpm/200 μl) for 1 hr at room temperature. The sections were then dipped in saturated Li2CO3 in 40% EtOH (two two-minute washes) and washed with 40% EtOH (one two-minute wash) followed by rinsing with water for 30 sec. After drying, the ^18F-labeled sections were exposed to Kodak MR film overnight. The results are depicted in the film in FIG. 2.
as §1, with “[^125I]tracers: To” for “To”, “The” for “The frozen”, “[^125I]tracers” for “[^125I] and [^18F]tracers”, “Li2CO3” for “lithium carbonate”, “^125I-labeled” for “^125I- or ^18F-labeled”
A macro-array block was constructed using postmortem human brain samples consisting of seven confirmed AD cases. […] In vitro film autoradiography was carried out using these novel ^125I or ^18F labeled diphenyltriazole probes. […] The labeling pattern was consistent with that observed by immunohistochemical labeling with an antibody (4G8) specific for Aβ (data not shown).

[3] = Partition coefficient (1-octanol/buffer); type: physicochemical; conditions: 1-octanol / 0.1 M phosphate buffer pH 7.4
Procedure: Partition coefficients were measured by mixing the [^125I] or [^18F]tracer with 3 g each of 1-octanol and buffer (0.1 M phosphate, pH 7.4) in a test tube. The test tube was vortexed for 3 min at room temperature, followed by centrifugation for 5 min. Two weighed samples (0.5 g each) from the 1-octanol and buffer layers were counted in a well counter. The partition coefficient was determined by calculating the ratio of cpm/g of 1-octanol to that of buffer. Samples from the 1-octanol layer were re-partitioned until consistent partitions of coefficient values were obtained. The measurement was done in triplicate and repeated three times.
Partition coefficients were measured by mixing ^123I-33 with 3 g each of 1-octanol and buffer (0.1 M phosphate, pH 7.4) in a test tube. The test tube was vortexed for 3 min at room temperature, followed by centrifugation for 5 min. Two weighed samples (0.5 g each) from the 1-octanol and the buffer layer were counted in a well counter. The partition coefficient was determined by calculating the ratio of cpm/g of 1-octanol to that of the buffer. Samples from the 1-octanol layer were repartitioned until consistent partitions of,coefficient values were obtained from the third partition. The measurement was done in triplicate and repeated three times.

[4] = test system: Aβ plaques in AD brain tissue homogenates; experiment: Specific binding of radiolabeled ligands to AD and control brain tissue homogenates; set-up: species or system human; conditions: for specific binding, gray matter homogenates of AD / specific binding, white matter homogenates of AD brain: 0.06 nM [^125I]probe, 0.5 nM [^18F]probe
Procedure: FIG. 6 depicts specific binding of preferred embodiments of the present invention to pooled AD and control brain tissue homogenates. Gray and white matters were dissected from the cortical regions. Higher specific binding was detected mainly in gray matter of AD. Relatively low binding was measured in white matter homogenates of AD as well as in gray and white matter homogenates of the control brain.
AD postmortem brain tissues were obtained from University of Washington Alzheimer's Disease Research Center. The neuropathological diagnosis was confirmed by current criteria (NIA-Reagan Institute Consensus Group, 1997). Homogenates were then prepared from dissected gray matters from four pooled AD patients in phosphate buffered saline (PBS, pH 7.4) at the concentration of approximately 100 mg wet tissue/ml (motor-driven glass homogenizer with setting of 6 for 30 sec). The homogenates were aliquoted into 1 mL-portions and stored at −70° C. for up to 2 years without loss of binding signal.
Similarly, the specific binding of radioiodinated and radiofluorinated ligands (0.06 nM for [^125I]probe and 0.5 nM for [^18F]probe to homogenates, prepared from the gray and white matters of AD and control brain tissues, were carried out as described above. Nonspecific binding was determined in the presence of 2 μM of the corresponding nonradioactive probes.
To further characterize the specificity of plaque binding, we evaluated [^125I]10a and [^18F]17a by a direct in vitro binding assay using homogenates (from different brain regions) prepared from AD and control brain tissues.

Aβ plaques = experiment: Labeling of Aβ plaques in AD sections by ^123I-33 at tracer concentrations; type: binding, human
[5] = Estimate of human dosimetry extrapolated from the mouse data; conditions: proposed 5 mCi human dose
Procedure: When administered i.v. to male mice, ^123I-33 entered the brain quickly and reached a peak brain concentration of 3.7% dose/g within 2 min post administration and fell to 0.25% dose/g within 60 min. […] At the proposed 5 mCi human dose the lower large intestine is estimated to receive approximately 3.8 rem, while the upper large intestine is estimated to receive approximately 3.3 rem of exposure.

[6] = Organ distribution of ^123I-33 in normal mice; type: in vivo, ICR mice; conditions: i.v.; for % total counted / Biodistribution Pancreas / Biodistribution Pancrease / Biodistribution Brain: normal male mice
Procedure: Total activities of blood were calculated under the assumption that they were 7% of the total body weight.

[7] = mouse; for brain washout index (brain2 min/brain30 min) / remaining in the brain: in vivo; for remaining in the brain: 2 h
Procedure: as §2

CNS receptors = experiment: Selectivity against CNS receptors; conditions: cell wraps r7-r10: No high affinity binding to any CNS receptors
Amyloid Plaque [8] = biological target: T1, Amyloid Plaque (Homo sapiens, UniProt P05067); experiment: Inhibition of ^125I-IMPY binding in AD brain homogenates; conditions: read-out: Binding Affinity (Ki vs. ^125I-IMPY)
T1 sequence (P05067 672-711 limits assumed): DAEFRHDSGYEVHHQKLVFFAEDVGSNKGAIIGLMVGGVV
Procedure: Postmortem brain tissue was obtained and neuropathological diagnosis was confirmed in accordance with the NIA-Reagan Institute Consensus Group criteria. Homogenates were then prepared from dissected gray matter, pooled in phosphate buffered saline and aliquoted into 1-ml portions (100 mg wet tissue/ml), which could be stored at −70° C. for 3-6 months without loss of binding signal.
For the binding assays brain homogenates were incubated with ^125I-IMPY (0.04-0.06 nM diluted in phosphate buffered saline (PBS)) and test compound (10^−5-10^−10 M diluted in PBS containing 0.1% bovine serum albumin (BSA)). Nonspecific binding was defined in the presence of IMPY (600 nM). The bound and free radioactivity was separated by vacuum filtration followed by 2×3 ml washes of PBS. Filters containing the bound ^125I ligand were assayed in a gamma counter.

fibrillar Aβ aggregates = fibrillar Aβ aggregates (Homo sapiens, UniProt P05067); conditions: read-out: inhibition constants (Ki) for binding to fibrillar Aβ aggregates; cited from earlier work
fibrillar Aβ aggregates, sequence (P05067 672-711 limits assumed): as above

Amyloid Plaque [9] = biological target: T1, Amyloid Plaque; conditions: AD brain homogenates; read-out: Binding Affinity (Ki vs. ^125I-IMPY), published values; cited from earlier work

SMILES: CNc1ccc(-c2cn(-c3ccc([125I])cc3)nn2)cc1 [[^125I]10a]
brain washout index (brain2 min/brain30 min) [1]: 5.66
white matter (background) labeling [2]: significant white matter labeling
log P [3]: 3.0
specific binding signal, homogenates of control brain tissues (gray and white matters) [4]: low
specific binding, gray matter homogenates of AD [4]: detected predominantly in the gray matter homogenates of AD
specific binding, white matter homogenates of AD brain [4]: very low or nonexistent

estimated exposure of lower large intestine [5]: approximately 3.8 rem
estimated exposure of upper large intestine [5]: approximately 3.3 rem
estimated human effective dose (ED) [5]: approximately 1.26 rem
logD [3]: 3.25
logP ([3]; 1-octanol/buffer (0.1 M phosphate)): 3.25
% total counted ([6]; 2 min): 90.41 ± 5.38%
Biodistribution Pancreas ([6]; 2 min): 0.90 ± 0.12 % dose/organ
Biodistribution Pancrease ([6]; 2 min): 5.32 ± 0.08 % dose/g
% total counted ([6]; 60 min): 81.43 ± 5.66%
Biodistribution Pancreas ([6]; 60 min): 0.25 ± 0.11 % dose/organ
Biodistribution Pancrease ([6]; 60 min): 1.35 ± 0.52 % dose/g
% total counted ([6]; 120 min): 80.05 ± 6.33%
Biodistribution Pancreas ([6]; 120 min): 0.19 ± 0.09 % dose/organ
Biodistribution Pancrease ([6]; 120 min): 1.09 ± 0.46 % dose/g
% total counted ([6]; 180 min): 81.95 ± 4.47%
Biodistribution Pancreas ([6]; 180 min): 0.22 ± 0.03 % dose/organ
Biodistribution Pancrease ([6]; 180 min): 1.29 ± 0.14 % dose/g
SMILES: CN(C)c1ccc(-c2cn(-c3ccc(OCCO)c([123I])c3)nn2)cc1 [^123I-33, 2-(4-(4-(4-(dimethylamino)phenyl)-1H-1,2,3-triazol-1-yl)-2-[^123I]iodophenoxy)ethanol]
labeling of Aβ plaques in sections from patients with pathologically confirmed AD (Aβ plaques): specifically labeled Aβ plaques
brain penetration and clearance ([6]; normal mice): readily penetrated and was rapidly cleared from the brain

bone uptake (in vivo defluorination) [7]: 18.59 % dose/g
brain washout index (brain2 min/brain30 min) [7]: 2.31
remaining in the brain [7]: 1-2 % dose/g
log P [3]: 2.7
SMILES: CN(C)c1ccc(-c2cn(-c3ccc(OCCC[18F])cc3)nn2)cc1 [[^18F]17b]
Aβ plaque labeling [2]: most distinctive Aβ plaque-labeling
white matter (background) labeling [2]: minimal level of background in the white matter areas

Selectivity (CNS receptors): No high
Ki (Amyloid Plaque [8]): 0.0075 ± 0.0005 µM
Biodistribution Brain ([6]; 2 min): 3.69 ± 0.14 % dose/g
Biodistribution Brain ([6]; 60 min): 0.25 ± 0.03 % dose/g
SMILES: CN(C)c1ccc(-c2cn(-c3ccc(OCCO)c([123I])c3)nn2)cc1 [Compound 33, 2-(4-(4-(4-(dimethylamino)phenyl)-1H-1,2,3-triazol-1-yl)-2-iodophenoxy)ethanol]

SMILES: O=C(O)c1cc(/N=N/c2ccc(-c3ccc(/N=N/c4ccc(O)c(C(=O)O)c4)cc3)cc2)ccc1O [CG, chrysamine-G]
Ki (fibrillar Aβ aggregates): 0.37 µM

bone uptake (in vivo defluorination) [7]: 4.64 % dose/g
brain washout index (brain2 min/brain30 min) [7]: 2.34
remaining in the brain [7]: 1-2 % dose/g
log P [3]: 2.7
specific binding signal, homogenates of control brain tissues (gray and white matters) [4]: low
specific binding, white matter homogenates of AD brain [4]: very low or nonexistent
SMILES: CN(C)c1ccc(-c2cn(-c3ccc(OCC[18F])cc3)nn2)cc1 [[^18F]17a]
Aβ plaque labeling [2]: most distinctive Aβ plaque-labeling
white matter (background) labeling [2]: minimal level of background in the white matter areas
specific binding, gray matter homogenates of AD [4]: detected predominantly in the gray matter homogenates of AD

SMILES: CN(C)c1ccc(-c2cn(-c3ccc([125I])cc3)nn2)cc1 [[^125I]10b]
brain washout index (brain2 min/brain30 min) [1]: 3.72
log P [3]: 3.4

SMILES: CC(=C(C#N)C#N)c1ccc2cc(N(C)CCF)ccc2c1 [FDDNP, 2-(1-{6-[(2-fluoroethyl)(methyl)amino]-2-naphthyl}ethylidene)malononitrile]
Ki (Amyloid Plaque [9]): 0.239 µM
